Values of other authors, collected in patent US10864317B2, “Time controlled periodic infusion” (Ferrosan Medical Devices A/S, priority 2014, dated 2020).

System: peripheral nerve
Details: ropivacaine as LA; dependent on regional and individual differences

CCCN1CCCC[C@H]1C(=O)Nc1c(C)cccc1C [ropivacaine]
duration of pain relief for nerve blocks: about 12 h
